Laboratory results: article PMC5766581, “NF-κB inducing kinase is a therapeutic target for systemic lupus erythematosus” (Nature Communications, 2018)

Columns and labels:
human B cells = assay: BAFF B cell survival assay (Cell Titer Glo); assay type: cell-based
Procedure: Human B cells were isolated using Miltenyi Human B cell isolation kit following ficoll separation of buffy coats. […] Mouse B cells were isolated from mouse spleen using Miltenyi mouse B cell isolation kit II. Cells were plated in Co-star 96-well plates at either 50,000 cells/well for the survival assays or at 150,000 cells/well for the proliferation assays. Compounds diluted in DMSO (final DMSO assay concentration = 0.1%) were added to the cells. The cells were incubated with compound for one hour at 37 °C. Stimulus was then added to the plates and survival or proliferation was measured after four days. For the proliferation assays, cells were treated with either Anti-IgM (20 μg/mL) or rhCD40L (10 μg/mL; R&D) or anti-mouse CD40 (100 ng/mL). Proliferation was measured using thymidine incorporation on day four. For the BAFF survival assay, cells were treated with human or mouse rBAFF (R&D Systems) at 10 ng/ml followed by Cell Titer Glo (Promega) to measure survival on day four.

RAF1 (Y340D, Y341D) = target: T1, RAF1 (Y340D, Y341D) (Homo sapiens, UniProt P04049, Y340D/Y341D); assay: SelectScreen kinase panel; assay type: binding
T1 construct: purchased Invitrogen / ThermoFisher SelectScreen
Procedure: (§1) The ability of NIK to catalyze the hydrolysis of adenosine-5′-triphosphate (ATP) was monitored using the Transcreener ADP (adenosine-5′-diphosphate) assay (Bell Brook Labs, Fitchburg, WI). Purified human NIK kinase domain (a.a. 340–694) (0.5 nM) or mouse NIK kinase domain (a.a. 329–675) (1 nM) derived from a baculovirus-infected insect cell expression system was incubated with test compounds for 0.5–2 h in 50 mM HEPES buffer (pH 7.2) containing 10 mM MgCl2, 2 mM dithiothreitol, 10 μM ATP, 0.01% Triton X-100, 0.1% gamma-globulins from bovine blood, 1% dimethylsulfoxide (DMSO), 7 μg/mL ADP antibody and 5 nM ADP-MR121 633 tracer. Reactions were quenched by the addition of 20 mM EDTA and 0.01% Brij 35. The tracer bound to the antibody was displaced by the ADP generated during the NIK reaction, which caused a decrease in fluorescence polarization that was measured by laser excitation at 633 nm with a Fluorescence Correlation Spectroscopy Plus reader (Evotec AG). Equilibrium dissociation constant (Ki) values for NIK inhibitors are calculated from plots of activity vs. inhibitor concentration using Morrison’s quadratic equation that accounts for the potential of tight binding, and by also applying the conversion factor that accounted for competitive inhibition and the concentration of substrate used in the assay relative to its Michaelis constant (Km). The Ki values with hPKD1 (PKCμ) were determined using the same assay conditions as for NIK. Ki measurements for hKHS1 and hLRRK2, as well as broad kinase selectivity profiling for SMI1, were carried out by Invitrogen using their SelectScreen kinase assay panel (ThermoFisher Scientific, Madison, WI). The vendor offered two types of kinase activity assays, a peptide phosphorylation assay (Z′-LYTE) and an ADP quantitation assay (Adapta), as well as one type of kinase ATP site competitive binding assay (LanthaScreen). See vendor web site for technology and protocol details for each specific kinase assay.
(§2) The average % Inhibition of each kinase is reported (Supplementary Table 1).

NLK = target: T2, NLK (Homo sapiens, UniProt Q9UBE8); assay: SelectScreen kinase panel; assay type: binding
T2 construct: purchased Invitrogen / ThermoFisher SelectScreen
Procedure: as §1, §2

LIMK1 = target: T3, LIMK1 (Homo sapiens, UniProt P53667); assay: SelectScreen kinase panel; assay type: binding
T3 construct: purchased Invitrogen / ThermoFisher SelectScreen
Procedure: as §1, §2

MEK1 = target: T4, MEK1 (Homo sapiens, UniProt Q02750); assay: SelectScreen kinase panel; assay type: binding
T4 construct: purchased Invitrogen / ThermoFisher SelectScreen
Procedure: as §1, §2

JNK3 = target: T5, JNK3 (Homo sapiens, UniProt P53779); assay: SelectScreen kinase panel; assay type: binding
T5 construct: purchased Invitrogen / ThermoFisher SelectScreen
Procedure: as §1, §2

ASK1 = target: T6, ASK1 (Homo sapiens, UniProt Q99683); assay: SelectScreen kinase panel; assay type: binding
T6 construct: purchased Invitrogen / ThermoFisher SelectScreen
Procedure: as §1, §2

STK33 = target: T7, STK33 (Homo sapiens, UniProt Q9BYT3); assay: SelectScreen kinase panel; assay type: binding
T7 construct: purchased Invitrogen / ThermoFisher SelectScreen
Procedure: as §1, §2

MKNK2 = target: T8, MKNK2 (Homo sapiens, UniProt Q9HBH9); assay: SelectScreen kinase panel; assay type: binding
T8 construct: purchased Invitrogen / ThermoFisher SelectScreen
Procedure: as §1, §2

WNK2 = target: T9, WNK2 (Homo sapiens, UniProt Q9Y3S1); assay: SelectScreen kinase panel; assay type: binding
T9 construct: purchased Invitrogen / ThermoFisher SelectScreen
Procedure: as §1, §2

MYLK3 = target: T10, MYLK3 (Homo sapiens, UniProt Q32MK0); assay: SelectScreen kinase panel; assay type: binding
T10 construct: purchased Invitrogen / ThermoFisher SelectScreen
Procedure: as §1, §2

ALK2 = target: T11, ALK2 (Homo sapiens, UniProt Q04771); assay: SelectScreen kinase panel; assay type: binding
T11 construct: purchased Invitrogen / ThermoFisher SelectScreen
Procedure: as §1, §2

CLK4 = target: T12, CLK4 (Homo sapiens, UniProt Q9HAZ1); assay: SelectScreen kinase panel; assay type: binding
T12 construct: purchased Invitrogen / ThermoFisher SelectScreen
Procedure: as §1, §2

TEC = target: T13, TEC (Homo sapiens, UniProt P42680); assay: SelectScreen kinase panel; assay type: binding
T13 construct: purchased Invitrogen / ThermoFisher SelectScreen
Procedure: as §1, §2

SLK = target: T14, SLK (Homo sapiens, UniProt Q9H2G2); assay: SelectScreen kinase panel; assay type: binding
T14 construct: purchased Invitrogen / ThermoFisher SelectScreen
Procedure: as §1, §2

CAMKK2 = target: T15, CAMKK2 (Homo sapiens, UniProt Q96RR4); assay: SelectScreen kinase panel; assay type: binding
T15 construct: purchased Invitrogen / ThermoFisher SelectScreen
Procedure: as §1, §2

CDK8/cyclinC = target: T16, CDK8/cyclinC (Homo sapiens, UniProt P49336); assay: SelectScreen kinase panel; assay type: binding
T16 construct: purchased Invitrogen / ThermoFisher SelectScreen
Procedure: as §1, §2

MKK6 = target: T17, MKK6 (Homo sapiens, UniProt P52564); assay: SelectScreen kinase panel; assay type: binding
T17 construct: purchased Invitrogen / ThermoFisher SelectScreen
Procedure: as §1, §2

B -Raf = target: T18, B -Raf (Homo sapiens, UniProt P15056); assay: SelectScreen kinase panel; assay type: binding
T18 construct: purchased Invitrogen / ThermoFisher SelectScreen
Procedure: as §1, §2

AVCR2B = target: T19, AVCR2B (Homo sapiens, UniProt Q13705); assay: SelectScreen kinase panel; assay type: binding
T19 construct: purchased Invitrogen / ThermoFisher SelectScreen
Procedure: as §1, §2

DDR1 = target: T20, DDR1 (Homo sapiens, UniProt Q08345); assay: SelectScreen kinase panel; assay type: binding
T20 construct: purchased Invitrogen / ThermoFisher SelectScreen
Procedure: as §1, §2

MLK2 = target: T21, MLK2 (Homo sapiens, UniProt Q02779); assay: SelectScreen kinase panel; assay type: binding
T21 construct: purchased Invitrogen / ThermoFisher SelectScreen
Procedure: as §1, §2

MEK3 = target: T22, MEK3 (Homo sapiens, UniProt P46734); assay: SelectScreen kinase panel; assay type: binding
T22 construct: purchased Invitrogen / ThermoFisher SelectScreen
Procedure: as §1, §2

C57BL/6 mice = assay: Seven-day in vivo B cell survival model; parameters: species or system mouse
PhK_gamma2 = target: T23, PhK_gamma2 (Homo sapiens, UniProt P15735); assay: SelectScreen kinase panel; assay type: biochemical
T23 construct: purchased Invitrogen / ThermoFisher SelectScreen

[1] = In vivo studies in mice: PK, target coverage, tolerability; parameters: species or system mouse

T5 sequence (P53779 whole entry): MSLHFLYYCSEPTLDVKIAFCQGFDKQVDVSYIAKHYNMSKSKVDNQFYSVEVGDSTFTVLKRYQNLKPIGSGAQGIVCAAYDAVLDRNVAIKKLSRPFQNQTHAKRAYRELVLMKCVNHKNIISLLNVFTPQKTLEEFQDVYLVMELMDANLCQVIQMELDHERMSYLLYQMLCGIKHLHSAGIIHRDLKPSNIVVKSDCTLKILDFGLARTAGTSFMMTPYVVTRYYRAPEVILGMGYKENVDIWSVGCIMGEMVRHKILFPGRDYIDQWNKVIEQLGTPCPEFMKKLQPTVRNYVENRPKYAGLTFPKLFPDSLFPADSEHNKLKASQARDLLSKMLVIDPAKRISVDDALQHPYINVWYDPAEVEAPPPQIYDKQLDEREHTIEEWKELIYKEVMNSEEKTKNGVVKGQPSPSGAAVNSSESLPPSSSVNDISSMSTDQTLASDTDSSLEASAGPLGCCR
T13 sequence (P42680 whole entry): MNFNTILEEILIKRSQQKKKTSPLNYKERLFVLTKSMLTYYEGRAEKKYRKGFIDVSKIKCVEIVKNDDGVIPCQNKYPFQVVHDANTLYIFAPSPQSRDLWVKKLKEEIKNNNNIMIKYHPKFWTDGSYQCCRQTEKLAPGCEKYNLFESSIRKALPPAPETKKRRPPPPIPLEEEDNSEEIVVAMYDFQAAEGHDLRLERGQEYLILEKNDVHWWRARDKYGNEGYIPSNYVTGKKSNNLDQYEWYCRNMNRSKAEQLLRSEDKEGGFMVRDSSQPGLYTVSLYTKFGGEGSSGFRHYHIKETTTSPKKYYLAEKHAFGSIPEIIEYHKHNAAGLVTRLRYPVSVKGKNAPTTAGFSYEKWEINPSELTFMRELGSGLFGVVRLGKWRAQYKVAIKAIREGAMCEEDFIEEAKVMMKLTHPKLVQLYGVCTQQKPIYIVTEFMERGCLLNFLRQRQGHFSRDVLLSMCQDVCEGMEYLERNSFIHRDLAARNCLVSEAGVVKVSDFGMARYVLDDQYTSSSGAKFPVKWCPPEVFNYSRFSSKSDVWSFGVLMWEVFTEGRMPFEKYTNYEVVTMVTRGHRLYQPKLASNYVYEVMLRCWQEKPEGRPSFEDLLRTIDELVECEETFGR
T12 sequence (Q9HAZ1 whole entry): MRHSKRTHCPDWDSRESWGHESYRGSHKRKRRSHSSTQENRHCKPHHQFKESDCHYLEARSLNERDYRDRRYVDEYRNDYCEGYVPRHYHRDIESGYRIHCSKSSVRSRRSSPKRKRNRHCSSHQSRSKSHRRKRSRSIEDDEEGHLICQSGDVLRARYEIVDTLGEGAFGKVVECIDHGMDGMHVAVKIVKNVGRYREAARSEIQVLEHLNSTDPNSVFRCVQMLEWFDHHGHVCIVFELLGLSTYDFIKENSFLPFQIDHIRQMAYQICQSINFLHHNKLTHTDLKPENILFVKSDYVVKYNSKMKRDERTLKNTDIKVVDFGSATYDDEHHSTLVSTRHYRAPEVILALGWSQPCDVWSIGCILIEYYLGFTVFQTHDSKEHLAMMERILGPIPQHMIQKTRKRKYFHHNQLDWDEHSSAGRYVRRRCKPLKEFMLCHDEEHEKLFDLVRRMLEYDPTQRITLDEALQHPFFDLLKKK
T6 sequence (Q99683 whole entry): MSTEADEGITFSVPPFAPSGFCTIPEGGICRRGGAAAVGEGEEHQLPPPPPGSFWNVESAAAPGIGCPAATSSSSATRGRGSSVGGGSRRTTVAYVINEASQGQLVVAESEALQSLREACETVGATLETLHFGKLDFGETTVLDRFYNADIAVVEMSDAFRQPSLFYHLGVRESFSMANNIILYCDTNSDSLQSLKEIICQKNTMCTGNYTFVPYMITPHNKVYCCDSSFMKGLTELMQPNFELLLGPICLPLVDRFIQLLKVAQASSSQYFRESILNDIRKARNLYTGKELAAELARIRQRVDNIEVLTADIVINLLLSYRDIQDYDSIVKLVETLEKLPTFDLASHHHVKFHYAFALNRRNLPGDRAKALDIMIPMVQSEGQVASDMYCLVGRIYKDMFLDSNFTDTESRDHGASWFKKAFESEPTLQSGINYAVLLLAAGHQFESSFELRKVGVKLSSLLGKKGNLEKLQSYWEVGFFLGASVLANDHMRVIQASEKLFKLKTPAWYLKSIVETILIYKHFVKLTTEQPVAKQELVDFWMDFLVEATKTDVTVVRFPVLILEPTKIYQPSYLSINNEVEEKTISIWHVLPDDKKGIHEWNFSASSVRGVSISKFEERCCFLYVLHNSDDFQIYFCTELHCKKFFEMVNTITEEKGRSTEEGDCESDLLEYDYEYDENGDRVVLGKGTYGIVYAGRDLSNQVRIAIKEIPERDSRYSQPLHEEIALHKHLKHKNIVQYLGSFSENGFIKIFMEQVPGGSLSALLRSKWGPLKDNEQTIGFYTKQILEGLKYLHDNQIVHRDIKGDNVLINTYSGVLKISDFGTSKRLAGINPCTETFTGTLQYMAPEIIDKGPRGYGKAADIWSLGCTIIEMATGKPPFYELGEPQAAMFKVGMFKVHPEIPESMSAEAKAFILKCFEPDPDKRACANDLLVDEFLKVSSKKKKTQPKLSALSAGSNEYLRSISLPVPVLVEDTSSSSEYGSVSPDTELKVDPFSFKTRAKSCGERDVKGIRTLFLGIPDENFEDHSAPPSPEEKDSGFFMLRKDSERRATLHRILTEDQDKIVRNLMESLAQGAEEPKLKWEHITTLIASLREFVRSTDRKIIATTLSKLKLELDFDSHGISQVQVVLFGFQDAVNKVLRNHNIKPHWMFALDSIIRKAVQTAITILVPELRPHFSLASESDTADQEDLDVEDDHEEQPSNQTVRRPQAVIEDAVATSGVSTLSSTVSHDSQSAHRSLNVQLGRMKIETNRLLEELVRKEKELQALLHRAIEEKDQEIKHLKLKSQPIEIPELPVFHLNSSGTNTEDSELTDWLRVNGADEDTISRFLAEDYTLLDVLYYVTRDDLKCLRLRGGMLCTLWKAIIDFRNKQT
T20 sequence (Q08345 19-913): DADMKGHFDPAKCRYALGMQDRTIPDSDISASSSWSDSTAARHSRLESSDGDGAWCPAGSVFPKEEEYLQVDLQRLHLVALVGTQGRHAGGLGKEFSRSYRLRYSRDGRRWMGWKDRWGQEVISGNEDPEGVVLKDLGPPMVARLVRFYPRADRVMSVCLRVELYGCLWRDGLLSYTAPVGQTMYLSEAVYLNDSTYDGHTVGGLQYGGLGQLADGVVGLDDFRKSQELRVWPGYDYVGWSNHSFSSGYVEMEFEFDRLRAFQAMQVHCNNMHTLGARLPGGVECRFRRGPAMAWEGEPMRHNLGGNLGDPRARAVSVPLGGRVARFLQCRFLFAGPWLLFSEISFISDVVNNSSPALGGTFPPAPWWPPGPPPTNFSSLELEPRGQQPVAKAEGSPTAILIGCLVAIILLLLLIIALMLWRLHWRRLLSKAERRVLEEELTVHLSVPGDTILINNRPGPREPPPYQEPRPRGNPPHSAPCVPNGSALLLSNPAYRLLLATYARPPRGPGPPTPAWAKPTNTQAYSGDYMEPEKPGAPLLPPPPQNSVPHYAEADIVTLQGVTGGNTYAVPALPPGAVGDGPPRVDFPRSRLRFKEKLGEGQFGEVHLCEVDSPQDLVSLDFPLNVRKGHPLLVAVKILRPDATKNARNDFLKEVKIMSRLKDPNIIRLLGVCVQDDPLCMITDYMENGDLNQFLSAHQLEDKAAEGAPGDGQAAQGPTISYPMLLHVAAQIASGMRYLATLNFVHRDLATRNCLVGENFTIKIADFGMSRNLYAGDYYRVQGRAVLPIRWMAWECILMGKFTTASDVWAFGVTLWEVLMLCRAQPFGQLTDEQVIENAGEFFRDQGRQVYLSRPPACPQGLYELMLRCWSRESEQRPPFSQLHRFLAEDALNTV
T8 sequence (Q9HBH9 whole entry): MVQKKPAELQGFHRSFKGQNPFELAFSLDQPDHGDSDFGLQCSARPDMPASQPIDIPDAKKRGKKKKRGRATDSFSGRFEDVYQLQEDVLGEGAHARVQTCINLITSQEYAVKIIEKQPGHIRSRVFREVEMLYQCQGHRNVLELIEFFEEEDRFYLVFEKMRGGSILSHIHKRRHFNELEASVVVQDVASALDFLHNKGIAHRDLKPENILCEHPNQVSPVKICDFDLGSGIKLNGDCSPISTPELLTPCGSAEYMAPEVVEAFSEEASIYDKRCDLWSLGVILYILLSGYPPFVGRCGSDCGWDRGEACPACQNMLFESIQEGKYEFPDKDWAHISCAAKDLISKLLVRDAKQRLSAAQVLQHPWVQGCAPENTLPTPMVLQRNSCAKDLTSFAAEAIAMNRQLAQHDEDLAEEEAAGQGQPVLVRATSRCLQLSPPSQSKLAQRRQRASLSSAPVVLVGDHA
T17 sequence (P52564 whole entry): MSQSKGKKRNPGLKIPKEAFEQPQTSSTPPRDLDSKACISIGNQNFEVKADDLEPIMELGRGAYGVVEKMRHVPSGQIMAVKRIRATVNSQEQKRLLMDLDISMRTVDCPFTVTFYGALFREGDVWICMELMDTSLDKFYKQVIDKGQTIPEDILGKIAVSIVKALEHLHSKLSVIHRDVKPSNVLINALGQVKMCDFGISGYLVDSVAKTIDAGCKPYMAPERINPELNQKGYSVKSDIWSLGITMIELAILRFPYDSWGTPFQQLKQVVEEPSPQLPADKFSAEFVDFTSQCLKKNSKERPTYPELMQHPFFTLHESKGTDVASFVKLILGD
T4 sequence (Q02750 whole entry): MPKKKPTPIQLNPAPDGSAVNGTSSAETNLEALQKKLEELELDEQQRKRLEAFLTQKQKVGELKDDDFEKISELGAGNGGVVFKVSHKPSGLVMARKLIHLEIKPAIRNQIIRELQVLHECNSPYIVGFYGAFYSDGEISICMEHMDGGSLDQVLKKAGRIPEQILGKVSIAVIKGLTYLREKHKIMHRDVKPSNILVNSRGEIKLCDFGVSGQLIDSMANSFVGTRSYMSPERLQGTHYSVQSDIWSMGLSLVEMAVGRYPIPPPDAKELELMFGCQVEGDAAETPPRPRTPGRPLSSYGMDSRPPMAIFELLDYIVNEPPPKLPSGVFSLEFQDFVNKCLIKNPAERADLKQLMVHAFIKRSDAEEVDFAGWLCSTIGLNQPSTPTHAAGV

Structure (SMILES): COc1cc(C(N)=O)nc(-c2cccc(C#C[C@]3(O)CCN(C)C3=O)c2)c1 [NIK SMI1]
- IC50 (human B cells; Homo sapiens, B-cell, BAFF induced, mean ± SD): 189 nM
- BAFF-driven survival of B cells in vitro (human B cells; human B cells): completely inhibited
- inhibition at 1 µM (RAF1 (Y340D, Y341D)): -1.5%
- inhibition at 1 µM (NLK): 4.2%
- inhibition at 1 µM (LIMK1): 16.8%
- inhibition at 1 µM (MEK1): 43.1%
- inhibition at 1 µM (JNK3): 4.6%
- inhibition at 1 µM (ASK1): 3.8%
- inhibition at 1 µM (STK33): 3.9%
- inhibition at 1 µM (MKNK2): 23.3%
- inhibition at 1 µM (WNK2): 1.7%
- inhibition at 1 µM (MYLK3): 45.3%
- inhibition at 1 µM (ALK2): 5.8%
- inhibition at 1 µM (CLK4): 13.7%
- inhibition at 1 µM (TEC): 1.1%
- inhibition at 1 µM (SLK): 2.6%
- inhibition at 1 µM (CAMKK2): 1.1%
- inhibition at 1 µM (CDK8/cyclinC): 7.8%
- inhibition at 1 µM (MKK6): 13.2%
- inhibition at 1 µM (B -Raf): -0.3%
- inhibition at 1 µM (AVCR2B): 0.8%
- inhibition at 1 µM (DDR1): 2.7%
- inhibition at 1 µM (MLK2): 9.9%
- inhibition at 1 µM (MEK3): 11.4%
- splenic cellularity, frequency and absolute numbers of total B2, marginal zone and follicular B cells in the spleen (C57BL/6 mice; 6-400 mg/kg BID oral, 7 days): dose-dependently reduced
- reduction of serum IgA levels (C57BL/6 mice; after 1 week of treatment, oral BID): approximately 50%
- inhibition at 1 µM (PhK_gamma2): -3%
- adverse effect not explained by on-target pharmacology ([1]; 180 mg/kg, no formal toxicity assessment): never observed any adverse effect
- coverage of NIK activity in vivo ([1]; doses used in vivo): 70–90%
- PK properties ([1]; mouse, in vivo): excellent
